pIC50: −log10 of the molar value. Read-outs that look alike come from different tables or passages of the source.
Tests used:
[1] = biological target: GSK3α (GST-full length GSK3α) (Homo sapiens (Human), UniProt P49840); experiment: GSK3α TR-FRET kinase assay; assay type: biochemical
Summary of the method: (§1)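 In this time-resolved FRET format, kinase reactions contained 200 nM biotinylated, S645-phosphorylated glycogen synthase 631-650 peptide and either isoform-specific ATP (2 μM GSK3b, 4 μM GSK3α) or 1 mM ATP. They were quenched with EDTA after 100 min at ambient temperature. Inhibition curves gave IC50 values.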

[2] = biological target: GSK3b (GST-full length GSK3b) (Homo sapiens (Human), UniProt P49841); experiment: GSK3b TR-FRET kinase assay; assay type: biochemical
Summary of the method: as §1

[3] = 1 nM GSK3α, 4 μM ATP, 30 minute preincubation, Table 16, read-out: GSK3-A TR-FRET BIOCHEMICAL (TR-FRET)
[4] = 1 nM GSK3b, 2 μM ATP, 30 minute preincubation, Table 16, read-out: GSK3-B TR-FRET BIOCHEMICAL (TR-FRET)
[5] = 1 nM GSK3α, 4 μM ATP, 30 minute preincubation, read-out: GSK3-A TR-FRET BIOCHEMICAL (TR-FRET), IC50
[6] = 1 nM GSK3b, 2 μM ATP, 30 minute preincubation, read-out: GSK3-B TR-FRET BIOCHEMICAL (TR-FRET), IC50
[7] = GSK3-A (TR-FRET 1 mM ATP), GMean, IC50, 1 mM ATP, geometric mean
[8] = GSK3-B (TR-FRET 1 mM ATP), GMean, IC50, 1 mM ATP, geometric mean
[9] = read-out: GSK3-A (TR-FRET 1 mM ATP), GMean, IC50, 1 mM ATP, geometric mean
[10] = read-out: GSK3-B (TR-FRET 1 mM ATP), GMean, IC50, 1 mM ATP, geometric mean

Chain of GSK3α (GST-full length GSK3α) (P49840 whole entry, canonical isoform): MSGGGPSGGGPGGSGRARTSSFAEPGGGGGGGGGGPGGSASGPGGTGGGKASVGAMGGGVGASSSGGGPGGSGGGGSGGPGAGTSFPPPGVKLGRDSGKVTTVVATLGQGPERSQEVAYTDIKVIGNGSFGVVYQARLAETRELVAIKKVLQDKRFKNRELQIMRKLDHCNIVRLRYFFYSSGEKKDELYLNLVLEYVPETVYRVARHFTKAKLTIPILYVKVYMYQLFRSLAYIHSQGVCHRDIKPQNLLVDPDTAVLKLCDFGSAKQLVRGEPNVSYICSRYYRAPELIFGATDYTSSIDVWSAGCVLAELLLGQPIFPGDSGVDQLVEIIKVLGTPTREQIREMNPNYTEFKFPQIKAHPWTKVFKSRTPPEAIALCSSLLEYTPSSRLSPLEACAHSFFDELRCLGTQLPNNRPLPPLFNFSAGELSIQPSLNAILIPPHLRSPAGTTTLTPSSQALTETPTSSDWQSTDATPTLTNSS
Chain of GSK3b (GST-full length GSK3b) (P49841 whole entry): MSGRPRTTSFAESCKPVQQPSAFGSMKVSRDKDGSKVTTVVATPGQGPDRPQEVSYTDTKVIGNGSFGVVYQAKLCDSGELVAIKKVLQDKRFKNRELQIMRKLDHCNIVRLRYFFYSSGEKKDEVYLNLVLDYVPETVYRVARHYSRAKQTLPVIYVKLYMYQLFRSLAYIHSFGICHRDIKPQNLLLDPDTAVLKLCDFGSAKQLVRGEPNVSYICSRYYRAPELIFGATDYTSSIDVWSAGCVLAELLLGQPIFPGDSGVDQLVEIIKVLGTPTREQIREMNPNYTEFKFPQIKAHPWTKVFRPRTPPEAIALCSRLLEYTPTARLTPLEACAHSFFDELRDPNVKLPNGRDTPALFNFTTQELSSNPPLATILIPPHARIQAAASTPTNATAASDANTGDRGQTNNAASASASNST

SMILES	pIC50 [1, 3]	pIC50 [2, 4]	pIC50 [1, 5]	pIC50 [2, 6]	further results
CC[C@]1(c2cccc(-c3ccnc(C(F)F)c3)c2)C2=C(CC(C)(C)CC2=O)Nc2n[nH]cc21 [Compound 943919]	≥ 7.00	6.00 to 7.00			
CC1(C)CC(=O)C2=C(C1)Nc1n[nH]cc1[C@@]21COC2(CN(C(=O)c3ccccc3)C2)C1 [Compound 943955]			≥ 7.00	≥ 7.00	
CC1(C)CC(=O)C2=C(C1)Nc1n[nH]cc1C21COC2(CN(C(=O)C3CCCC3)C2)C1 (stereo not drawn) [Compound 943958]			6.00 to 7.00	5.30 to 6.00	
CC1(C)CC2=C(C(=O)N1)C1(CCN(S(=O)(=O)C3CCCC3)CC1)c1c[nH]nc1N2 [Compound 943960]			≥ 7.00	≥ 7.00	pIC50 [1, 7]: 6.00 to 7.00; pIC50 [2, 8]: 6.00 to 7.00
CC[C@]1(c2cccc(N(C)c3ncccn3)c2)C2=C(CC(C)(C)NC2=O)Nc2[nH]ncc21 [Compound 943965]			6.00 to 7.00	< 5.30	
CCC1(c2cccc(-c3cc(C)nn3C)c2)C2=C(CC(C)(C)NC2=O)Nc2n[nH]cc21 (stereo not drawn) [Compound 943966]			≥ 7.00	6.00 to 7.00	
CCC1(c2cccc(-c3ccncc3C)c2)C2=C(CC(C)(C)CC2=O)Nc2n[nH]cc21 (stereo not drawn) [Compound 943990]	≥ 7.00	≥ 7.00			pIC50 [1, 9]: ≥ 7.00; pIC50 [2, 10]: 6.00 to 7.00
CCC1(c2cccc(-c3c(C)nnn3C)c2)C2=C(CC(C)(C)CC2=O)Nc2n[nH]cc21 (stereo not drawn) [Compound 943996]	≥ 7.00	≥ 7.00			pIC50 [1, 9]: ≥ 7.00; pIC50 [2, 10]: 6.00 to 7.00
CCC1(c2cccc(-c3cn[nH]c3)c2)C2=C(CC(C)(C)NC2=O)Nc2n[nH]cc21 (stereo not drawn) [Compound 944022]			≥ 7.00	6.00 to 7.00	
CCC1(c2cccc(-c3cnco3)c2)C2=C(CC(C)(C)CC2=O)Nc2n[nH]cc21 (stereo not drawn) [Compound 944025]	≥ 7.00	6.00 to 7.00			

Second part, led by results:

pIC50 [1, 3]	pIC50 [2, 4]	pIC50 [1, 5]	pIC50 [2, 6]	SMILES	further results
		6.00 to 7.00	5.30 to 6.00	CC1(C)CC(=O)C2=C(C1)Nc1n[nH]cc1C21COC2(CN(C(=O)c3ccccc3)C2)C1 (stereo not drawn) [Compound 943956]	
		≥ 7.00	6.00 to 7.00	CC1(C)CC2=C(C(=O)N1)C1(CCN(S(C)(=O)=O)CC1)c1c[nH]nc1N2 [Compound 943959]	
≥ 7.00	≥ 7.00	≥ 7.00	≥ 7.00	Cn1ccc(S(=O)(=O)N2CCC3(CC2)C2=C(CC(C)(C)NC2=O)Nc2n[nH]cc23)n1 [Compound 943961]	pIC50 [1, 7]: 6.00 to 7.00; pIC50 [2, 8]: < 5.30
≥ 7.00	6.00 to 7.00	≥ 7.00	6.00 to 7.00	COc1cccc(S(=O)(=O)N2CCC3(CC2)C2=C(CC(C)(C)CC2=O)Nc2n[nH]cc23)c1 [Compound 943962]	
		≥ 7.00	≥ 7.00	CC1(C)CC2=C(C(=O)N1)C1(CCN(S(=O)(=O)c3ccc(F)cc3)CC1)c1c[nH]nc1N2 [Compound 943963]	
		≥ 7.00	≥ 7.00	CC[C@@]1(c2cccc(N(C)c3ncccn3)c2)C2=C(CC(C)(C)NC2=O)Nc2n[nH]cc21 [Compound 943964]	pIC50 [1, 9]: 6.00 to 7.00; pIC50 [2, 10]: 5.30 to 6.00
		< 5.30	< 5.30	CC[C@]1(c2cccc(-c3cc(C)nn3C)c2)C2=C(CC(C)(C)NC2=O)Nc2n[nH]cc21 [Compound 943967]	
6.00 to 7.00	5.30 to 6.00			CCC1(c2cccc(-c3ccnc(OC(F)(F)F)c3)c2)C2=C(CC(C)(C)CC2=O)Nc2n[nH]cc21 (stereo not drawn) [Compound 943988]	
≥ 7.00	6.00 to 7.00			CCC1(c2cccc(-c3ccnc(O)c3)c2)C2=C(CC(C)(C)CC2=O)Nc2n[nH]cc21 (stereo not drawn) [Compound 943992]	
≥ 7.00	≥ 7.00			CCC1(c2cccc(-c3cnnc(C)c3)c2)C2=C(CC(C)(C)CC2=O)Nc2n[nH]cc21 (stereo not drawn) [Compound 943994]	pIC50 [1, 9]: 6.00 to 7.00; pIC50 [2, 10]: 5.30 to 6.00
≥ 7.00	≥ 7.00			CCC1(c2cccc(S(=O)(=O)C3COC3)c2)C2=C(CC(C)(C)CC2=O)Nc2n[nH]cc21 (stereo not drawn) [Compound 944017]	
≥ 7.00	≥ 7.00			CCC1(c2cccc(S(=O)(=O)C3CCOC3)c2)C2=C(CC(C)(C)CC2=O)Nc2n[nH]cc21 (stereo not drawn) [Compound 944018]	
≥ 7.00	≥ 7.00			CCC1(c2cccc(S(=O)(=O)C3CC(F)(F)C3)c2)C2=C(CC(C)(C)CC2=O)Nc2n[nH]cc21 (stereo not drawn) [Compound 944019]	
≥ 7.00	6.00 to 7.00			CCc1cccc(N(C)c2cccc(C3(CC)C4=C(CC(C)(C)CC4=O)Nc4n[nH]cc43)c2)n1 (stereo not drawn) [Compound 944023]	
≥ 7.00	≥ 7.00			CCC1(c2cccc(-c3cncn3C(C)C)c2)C2=C(CC(C)(C)CC2=O)Nc2n[nH]cc21 (stereo not drawn) [Compound 944026]	

Source: US20250313563A1, “GLYCOGEN SYNTHASE KINASE 3 INHIBITORS AND USES THEREOF” (The Broad Institute, Inc., priority 2022, published 2025)
